Source: patent publication US9902733B2, “Furopyridines as inhibitors of protein kinases” (MASARYKOVA UNIVERZITA, priority 2014, dated 2018)

Experiments:
Type in all cases: biochemical
CLK2 (h) = target: T1, CLK2 (h) (Homo sapiens, UniProt P49760); assay: CLK2 KinaseProfiler radiometric protein kinase assay; settings: radiometric, 15 μM ATP, 40 minutes at room temperature; read-out: CLK2 IC50
T1 construct: purchased Merck Millipore (KinaseProfiler service)
Description: (§1) In vitro essays were performed by the company Merck Millipore in their KinaseProfiler radiometric protein kinase assay as paid commercial service. The compounds IC50 values for inhibition of individual protein kinases were determined. Dose-response curves were plotted from inhibition data generated, each in duplicate, from 10 point serial dilutions of inhibitory compounds. Concentration of compound was plotted against % kinase activity. To generate IC50 values, the dose-response curves were fitted to a standard sigmoidal curve and IC50 values were derived by standard nonlinear regression analysis.
(§2) All tested compounds were prepared in 100% DMSO to final assay concentrations either 0.5 mM (for the concentration row A, see below) or 0.05 mM (for the concentration row B). This working stock of the compound was added to the assay well as the first component in the reaction, followed by the remaining components as detailed below. The stock solution was added to the individual assay wells in such amounts that the concentrations of the compound were either in the row A (0.001 μM, 0.003 μM, 0.01 μM, 0.03 μM, 0.1 μM, 0.3 μM, 1.0 μM, 3.0 μM, and 10.0 μM) or in the row B (0.0001 μM, 0.0003 μM, 0.001 μM, 0.003 μM, 0.01 μM, 0.03 μM, 0.1 μM, 0.3 μM, and 1.0 μM). There was no pre-incubation step between the compound and the kinase prior to initiation of the reaction.
(§3) The positive control wells contained all components of the reaction, except the compound of interest; however, DMSO (at a final concentration of 2%) was included in these wells to control for solvent effects. The blank wells contained all components of the reaction, with staurosporine as a reference inhibitor replacing the compound of interest. This abolished kinase activity and established the base-line (0% kinase activity remaining).
CLK2 (h) was diluted in the buffer (20 mM MOPS (3-(N-morpholino)propanesulfonic acid), 1 mM EDTA (ethylendiaminotetraacetic acid), 0.01% Brij-35 (detergent), 5% Glycerol, 0.1% β-mercaptoethanol, 1 mg/mL BSAs) to the concentration of 1.01 mg/mL prior to addition to the reaction mix.
(§4) The above stock solution of CLK2(h) was added to a mixture containing 8 mM MOPS pH 7.0, 0.2 mM EDTA, and 20 μM […](p) EDEEE in such amount that the resulting concentration of CLK2(h) was 2.1 nM. This mixture was added to the stock solution of the tested compound. The reaction was initiated by the addition of the MgATP mix in such amount that the resulting concentration of Mg acetate in the reaction mixture was 10 mM and [γ-^33P-ATP] (specific activity approx. 500 cpm/pmol) was 15 μM. After incubation for 40 minutes at room temperature, the reaction was stopped by the addition of 3% phosphoric acid solution. 10 μL of the reaction was then spotted onto a P30 filtermat and washed three times for 5 minutes in 75 mM phosphoric acid and once in methanol prior to drying and scintillation counting.

CLK4 (h) = target: T2, CLK4 (h) (Homo sapiens, UniProt Q9HAZ1); assay: CLK4 KinaseProfiler radiometric protein kinase assay; settings: 15 μM ATP, 40 minutes at room temperature
T2 construct: purchased Merck Millipore (KinaseProfiler service)
Description: as §1, §2, §3
CLK4 (h) was diluted in the buffer (20 mM MOPS, 1 mM EDTA, 0.01% Brij-35, 5% Glycerol, 0.1% β-mercaptoethanol, 1 mg/mL BSAs) to the concentration of 1.01 mg/mL prior to addition to the reaction mix.
as §4, with “CLK4(h)” for “CLK2(h)”, “200” for “20”, “140.8” for “2.1”

HIPK1(h) = target: T3, HIPK1(h) (Homo sapiens, UniProt Q86Z02); assay: HIPK1 KinaseProfiler radiometric protein kinase assay; settings: 45 μM ATP, 40 minutes at room temperature
T3 construct: purchased Merck Millipore (KinaseProfiler service)
Description: as §1, §2, §3
HIPK1(h) was diluted in the buffer (20 mM MOPS, 1 mM EDTA, 0.01% Brij-35, 5% Glycerol, 0.1% β-mercaptoethanol, 1 mg/mL BSAs) to the concentration of 1.01 mg/mL prior to addition to the reaction mix.
(§5) The above stock solution of HIPK1(h) was added to a mixture containing 8 mM MOPS pH 7.0, 0.2 mM EDTA, and 0.33 mg/mL myelin basic protein in such amount that the resulting concentration of HIPK1(h) was 4.7 nM. This mixture was added to the stock solution of the tested compound. The reaction was initiated by the addition of the MgATP mix in such amount that the resulting concentration of Mg acetate in the reaction mixture was 10 mM and [γ-^33P-ATP] (specific activity approx. 500 cpm/pmol) was 45 μM. After incubation for 40 minutes at room temperature, the reaction was stopped by the addition of 3% phosphoric acid solution. 10 μL of the reaction was then spotted onto a P30 filtermat and washed three times for 5 minutes in 75 mM phosphoric acid and once in methanol prior to drying and scintillation counting.

HIPK2(h) = target: T4, HIPK2(h) (Homo sapiens, UniProt Q9H2X6); assay: HIPK2 KinaseProfiler radiometric protein kinase assay; settings: 10 μM ATP, 40 minutes at room temperature
T4 construct: purchased Merck Millipore (KinaseProfiler service)
Description: as §1, §2, §3
HIPK2(h) was diluted in the buffer (20 mM MOPS, 1 mM EDTA, 0.01% Brij-35, 5% Glycerol, 0.1% β-mercaptoethanol, 1 mg/mL BSAs) to the concentration of 1.01 mg/mL prior to addition to the reaction mix.
as §5, with “HIPK2(h)” for “HIPK1(h)”, “1.4” for “4.7”, “10” for “45”

HIPK3(h) = target: T5, HIPK3(h) (Homo sapiens, UniProt Q9H422); assay: HIPK3 KinaseProfiler radiometric protein kinase assay; settings: 15 μM ATP, 40 minutes at room temperature
T5 construct: purchased Merck Millipore (KinaseProfiler service)
Description: as §1, §2, §3
HIPK3(h) was diluted in the buffer (20 mM MOPS, 1 mM EDTA, 0.01% Brij-35, 5% Glycerol, 0.1% β-mercaptoethanol, 1 mg/mL BSAs) to the concentration of 1.01 mg/mL prior to addition to the reaction mix.
as §5, with “HIPK3(h)” for “HIPK1(h)”, “1.0” for “0.33”, “6.4” for “4.7”, “15” for “45”, “10 μL of the reaction was then spotted onto a P30 filtermat and washed three times for 5 minutes in 75 mM phosphoric acid and once in methanol prior to drying and scintillation counting.” left out

FLT3(h) = target: T6, FLT3(h) (Homo sapiens, UniProt P36888); assay: FLT3 KinaseProfiler radiometric protein kinase assay; settings: 200 μM ATP, 40 minutes at room temperature
T6 construct: purchased Merck Millipore (KinaseProfiler service)
T6 sequence (P36888 27-993): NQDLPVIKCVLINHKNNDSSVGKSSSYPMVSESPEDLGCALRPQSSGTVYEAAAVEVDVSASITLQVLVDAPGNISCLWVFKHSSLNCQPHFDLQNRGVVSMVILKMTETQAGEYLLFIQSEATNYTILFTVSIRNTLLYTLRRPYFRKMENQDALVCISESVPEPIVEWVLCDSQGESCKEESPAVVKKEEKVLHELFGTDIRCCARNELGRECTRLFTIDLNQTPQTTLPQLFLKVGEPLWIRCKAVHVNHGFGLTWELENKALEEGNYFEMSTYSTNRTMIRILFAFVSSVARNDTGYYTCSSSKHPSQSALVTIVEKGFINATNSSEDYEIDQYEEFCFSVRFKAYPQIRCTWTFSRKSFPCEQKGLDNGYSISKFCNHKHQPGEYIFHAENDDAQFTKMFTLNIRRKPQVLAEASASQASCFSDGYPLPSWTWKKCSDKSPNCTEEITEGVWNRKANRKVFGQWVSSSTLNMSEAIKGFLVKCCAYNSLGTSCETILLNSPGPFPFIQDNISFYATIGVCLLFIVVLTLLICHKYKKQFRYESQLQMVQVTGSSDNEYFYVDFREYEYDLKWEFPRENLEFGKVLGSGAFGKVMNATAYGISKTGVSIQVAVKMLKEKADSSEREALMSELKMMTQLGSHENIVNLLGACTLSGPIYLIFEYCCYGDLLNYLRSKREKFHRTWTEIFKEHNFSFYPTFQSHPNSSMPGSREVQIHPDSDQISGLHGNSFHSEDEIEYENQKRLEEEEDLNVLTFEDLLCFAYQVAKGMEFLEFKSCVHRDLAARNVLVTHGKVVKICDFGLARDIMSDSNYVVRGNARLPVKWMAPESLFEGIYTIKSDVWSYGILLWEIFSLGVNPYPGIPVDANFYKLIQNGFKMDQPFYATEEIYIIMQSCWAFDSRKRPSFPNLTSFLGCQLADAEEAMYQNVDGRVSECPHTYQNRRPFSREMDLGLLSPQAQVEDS
Description: as §1, §2, §3
FLT3(h) was diluted in the buffer (20 mM MOPS, 1 mM EDTA, 0.01% Brij-35, 5% Glycerol, 0.1% β-mercaptoethanol, 1 mg/mL BSAs) to the concentration of 1.01 mg/mL prior to addition to the reaction mix.
The above stock solution of Flt3(h) was added to a mixture containing 8 mM MOPS pH 7.0, 0.2 mM EDTA, and 50 μM EAIYAAPFAKKK, in such amount that the resulting concentration of FLT3(h) was 28.3 nM. This mixture was added to the stock solution of the tested compound. The reaction was initiated by the addition of the MgATP mix in such amount that the resulting concentration of Mg acetate in the reaction mixture was 10 mM and [γ-^33P-ATP] (specific activity approx. 500 cpm/pmol) was 200 μM. After incubation for 40 minutes at room temperature, the reaction was stopped by the addition of 3% phosphoric acid solution. 10 μL of the reaction was then spotted onto a P30 filtermat and washed three times for 5 minutes in 75 mM phosphoric acid and once in methanol prior to drying and scintillation counting.

TRKA(h) = target: T7, TRKA(h) (Homo sapiens, UniProt P04629); assay: TRKA KinaseProfiler radiometric protein kinase assay; settings: 120 μM ATP, 40 minutes at room temperature
T7 construct: purchased Merck Millipore (KinaseProfiler service)
Description: as §1, §2, §3
TRKA(h) was diluted in the buffer (20 mM MOPS, 1 mM EDTA, 0.01% Brij-35, 5% Glycerol, 0.1% β-mercaptoethanol, 1 mg/mL BSAs) to the concentration of 1.01 mg/mL prior to addition to the reaction mix.
The above stock solution of TRKA(h) was added to a mixture containing 8 mM MOPS pH 7.0, 0.2 mM EDTA, and 250 μM KKKSPGEYVNIEFG, in such amount that the resulting concentration of TRKA(h) was 28.2 nM. This mixture was added to the stock solution of the tested compound. The reaction was initiated by the addition of the MgATP mix in such amount that the resulting concentration of Mg acetate in the reaction mixture was 10 mM and [γ-^33P-ATP] (specific activity approx. 500 cpm/pmol) was 120 μM. After incubation for 40 minutes at room temperature, the reaction was stopped by the addition of 3% phosphoric acid solution. […]

T7 sequence (P04629 33-796): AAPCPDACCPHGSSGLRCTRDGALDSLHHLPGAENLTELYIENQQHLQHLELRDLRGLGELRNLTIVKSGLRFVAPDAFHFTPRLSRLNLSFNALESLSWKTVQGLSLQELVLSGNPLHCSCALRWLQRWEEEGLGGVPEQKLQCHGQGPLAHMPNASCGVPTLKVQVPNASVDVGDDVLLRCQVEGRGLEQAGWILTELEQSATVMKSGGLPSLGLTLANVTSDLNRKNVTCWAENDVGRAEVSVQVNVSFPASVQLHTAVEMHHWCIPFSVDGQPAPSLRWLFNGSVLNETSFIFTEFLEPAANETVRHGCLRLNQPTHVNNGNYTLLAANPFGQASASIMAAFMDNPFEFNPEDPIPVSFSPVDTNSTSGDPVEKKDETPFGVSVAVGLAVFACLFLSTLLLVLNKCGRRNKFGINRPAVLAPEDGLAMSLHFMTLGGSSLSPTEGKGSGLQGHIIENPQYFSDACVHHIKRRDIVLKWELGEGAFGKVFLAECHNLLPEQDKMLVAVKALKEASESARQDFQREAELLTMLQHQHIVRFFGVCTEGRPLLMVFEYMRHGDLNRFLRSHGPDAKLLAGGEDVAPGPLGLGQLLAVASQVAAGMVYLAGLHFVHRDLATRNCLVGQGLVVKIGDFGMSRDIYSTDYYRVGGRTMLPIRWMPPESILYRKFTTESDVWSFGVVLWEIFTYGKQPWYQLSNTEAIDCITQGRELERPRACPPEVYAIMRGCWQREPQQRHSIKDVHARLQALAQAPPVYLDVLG
T1 sequence (P49760 whole entry): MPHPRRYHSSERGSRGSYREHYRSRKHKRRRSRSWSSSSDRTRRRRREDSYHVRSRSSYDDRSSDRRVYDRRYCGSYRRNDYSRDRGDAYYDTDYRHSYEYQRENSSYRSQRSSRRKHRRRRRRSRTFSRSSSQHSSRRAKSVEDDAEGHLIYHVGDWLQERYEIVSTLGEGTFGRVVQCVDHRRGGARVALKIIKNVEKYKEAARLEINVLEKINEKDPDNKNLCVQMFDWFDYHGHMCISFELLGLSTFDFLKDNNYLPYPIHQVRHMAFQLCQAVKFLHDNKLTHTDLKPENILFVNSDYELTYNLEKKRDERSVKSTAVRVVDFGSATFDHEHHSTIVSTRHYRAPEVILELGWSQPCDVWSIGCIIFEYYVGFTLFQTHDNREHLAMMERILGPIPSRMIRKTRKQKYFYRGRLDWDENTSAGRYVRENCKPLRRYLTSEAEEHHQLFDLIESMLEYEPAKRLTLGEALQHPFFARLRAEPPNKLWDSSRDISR
T2 sequence (Q9HAZ1 whole entry): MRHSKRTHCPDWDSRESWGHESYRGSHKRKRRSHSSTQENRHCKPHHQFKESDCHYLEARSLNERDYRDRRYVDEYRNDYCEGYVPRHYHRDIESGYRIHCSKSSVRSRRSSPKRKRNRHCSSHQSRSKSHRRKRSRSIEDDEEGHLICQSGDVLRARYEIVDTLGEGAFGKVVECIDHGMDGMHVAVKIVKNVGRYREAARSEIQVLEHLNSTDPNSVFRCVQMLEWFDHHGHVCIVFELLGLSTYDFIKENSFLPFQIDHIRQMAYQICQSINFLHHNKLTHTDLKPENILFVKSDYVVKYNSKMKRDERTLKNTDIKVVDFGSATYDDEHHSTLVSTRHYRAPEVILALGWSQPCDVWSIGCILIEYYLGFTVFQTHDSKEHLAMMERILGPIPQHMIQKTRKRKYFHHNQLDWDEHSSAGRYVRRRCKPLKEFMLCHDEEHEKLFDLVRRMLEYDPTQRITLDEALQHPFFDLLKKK
T4 sequence (Q9H2X6 whole entry): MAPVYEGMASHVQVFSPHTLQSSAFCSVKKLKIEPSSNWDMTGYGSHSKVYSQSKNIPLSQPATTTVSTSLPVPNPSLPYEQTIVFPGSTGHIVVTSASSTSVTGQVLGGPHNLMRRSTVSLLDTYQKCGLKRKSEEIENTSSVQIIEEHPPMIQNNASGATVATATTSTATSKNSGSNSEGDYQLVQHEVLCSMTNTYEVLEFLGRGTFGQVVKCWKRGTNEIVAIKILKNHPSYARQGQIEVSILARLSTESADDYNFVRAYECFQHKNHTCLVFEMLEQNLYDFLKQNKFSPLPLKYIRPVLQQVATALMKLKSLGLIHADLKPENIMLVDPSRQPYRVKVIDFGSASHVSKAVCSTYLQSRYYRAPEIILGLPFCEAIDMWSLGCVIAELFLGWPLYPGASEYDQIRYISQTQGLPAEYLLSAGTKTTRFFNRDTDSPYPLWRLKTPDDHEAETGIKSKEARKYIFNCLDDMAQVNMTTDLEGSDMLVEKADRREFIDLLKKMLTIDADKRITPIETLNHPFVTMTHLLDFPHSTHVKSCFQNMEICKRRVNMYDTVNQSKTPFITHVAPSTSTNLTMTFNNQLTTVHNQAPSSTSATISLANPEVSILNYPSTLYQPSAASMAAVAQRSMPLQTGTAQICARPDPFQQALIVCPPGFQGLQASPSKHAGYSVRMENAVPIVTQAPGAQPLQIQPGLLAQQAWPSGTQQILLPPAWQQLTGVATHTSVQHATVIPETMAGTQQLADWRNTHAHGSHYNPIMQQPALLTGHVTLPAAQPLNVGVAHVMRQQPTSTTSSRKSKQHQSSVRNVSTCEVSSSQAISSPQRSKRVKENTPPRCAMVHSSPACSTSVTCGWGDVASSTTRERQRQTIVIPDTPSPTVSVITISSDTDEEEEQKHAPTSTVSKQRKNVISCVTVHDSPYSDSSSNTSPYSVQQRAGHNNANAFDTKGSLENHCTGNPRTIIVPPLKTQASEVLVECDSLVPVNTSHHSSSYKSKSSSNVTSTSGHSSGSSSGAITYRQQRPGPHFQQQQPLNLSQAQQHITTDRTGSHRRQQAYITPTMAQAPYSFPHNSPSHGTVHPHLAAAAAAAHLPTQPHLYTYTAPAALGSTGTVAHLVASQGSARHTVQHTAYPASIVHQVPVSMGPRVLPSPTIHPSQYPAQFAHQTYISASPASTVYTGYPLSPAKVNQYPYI
T5 sequence (Q9H422 whole entry): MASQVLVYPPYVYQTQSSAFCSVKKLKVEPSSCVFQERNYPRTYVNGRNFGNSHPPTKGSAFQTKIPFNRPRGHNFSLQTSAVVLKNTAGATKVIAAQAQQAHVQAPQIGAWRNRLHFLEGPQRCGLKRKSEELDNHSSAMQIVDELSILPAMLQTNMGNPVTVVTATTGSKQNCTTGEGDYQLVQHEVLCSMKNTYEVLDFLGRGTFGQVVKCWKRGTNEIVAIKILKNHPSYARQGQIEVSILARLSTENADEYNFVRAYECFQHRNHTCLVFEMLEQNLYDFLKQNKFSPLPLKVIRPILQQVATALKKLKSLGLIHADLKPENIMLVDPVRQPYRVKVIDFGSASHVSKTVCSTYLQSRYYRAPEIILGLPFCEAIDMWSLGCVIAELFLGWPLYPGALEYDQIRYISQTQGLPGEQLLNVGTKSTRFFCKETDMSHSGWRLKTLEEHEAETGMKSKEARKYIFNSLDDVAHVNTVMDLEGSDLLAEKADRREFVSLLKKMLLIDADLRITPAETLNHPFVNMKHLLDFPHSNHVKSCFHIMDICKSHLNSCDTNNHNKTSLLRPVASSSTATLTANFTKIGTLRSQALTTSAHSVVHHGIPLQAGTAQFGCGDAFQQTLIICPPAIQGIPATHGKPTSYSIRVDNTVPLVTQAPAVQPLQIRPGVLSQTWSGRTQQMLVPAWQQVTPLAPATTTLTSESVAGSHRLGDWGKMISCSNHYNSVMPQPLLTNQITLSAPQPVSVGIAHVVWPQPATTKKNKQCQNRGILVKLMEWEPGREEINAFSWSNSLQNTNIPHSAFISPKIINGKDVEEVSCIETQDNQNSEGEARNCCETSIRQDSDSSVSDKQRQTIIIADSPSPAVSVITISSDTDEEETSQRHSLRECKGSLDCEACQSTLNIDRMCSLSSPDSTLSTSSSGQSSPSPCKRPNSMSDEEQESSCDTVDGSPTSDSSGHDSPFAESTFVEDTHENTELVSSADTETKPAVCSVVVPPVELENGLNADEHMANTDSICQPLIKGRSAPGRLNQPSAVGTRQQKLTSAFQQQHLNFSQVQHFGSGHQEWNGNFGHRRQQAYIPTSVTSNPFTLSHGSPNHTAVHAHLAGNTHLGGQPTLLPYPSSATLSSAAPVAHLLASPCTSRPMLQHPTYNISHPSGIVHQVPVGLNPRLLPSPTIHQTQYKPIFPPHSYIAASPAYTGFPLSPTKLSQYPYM

| IC50 (CLK2 (h)) [µM] | IC50 (CLK4 (h)) [µM] | IC50 (HIPK1(h)) [µM] | IC50 (HIPK2(h)) [µM] | IC50 (HIPK3(h)) [µM] | IC50 (FLT3(h)) [µM] | IC50 (TRKA(h)) [µM] | Compound |
| --- | --- | --- | --- | --- | --- | --- | --- |
| < 0.1 | < 0.1 | < 1 | < 1 | < 1 | – | – | Cn1cc(-c2ccc3occ(-c4ccc5ccccc5c4)c3n2)cn1 [Preparative Example 7A] |
| – | < 5 | – | – | – | < 5 | < 5 | c1ccc(Nc2ccc3occ(-c4ccccc4)c3n2)cc1 [Preparative Example 8E] |
| < 5 | < 5 | < 5 | < 1 | < 5 | – | – | Cc1n[nH]c(C)c1-c1ccc2occ(-c3ccc4ccccc4c3)c2n1 [Preparative Example 7D] |
| – | < 5 | – | – | – | < 5 | < 5 | CN1CCN(c2ccc(Nc3ccc4occ(-c5ccccc5)c4n3)cc2)CC1 [Preparative Example 8C] |
| – | – | – | – | – | < 5 | < 5 | Cc1cc(Nc2cc(-c3ccccc3)nc3ccoc23)sn1 [Preparative Example 17E] |
| < 1 | – | – | – | – | < 1 | < 5 | c1ccc(-c2coc3ccc(Nc4ccc(N5CCOCC5)cc4)nc23)cc1 [Preparative Example 8B] |
| – | – | – | – | – | < 5 | – | c1ccc(-c2coc3ccc(Nc4ccncc4)nc23)cc1 [Preparative Example 8D] |
